From ChEMBL document CHEMBL3044534, “Antitumor and antileishmanial evaluation of novel heterocycles derived from quinazoline scaffold: a molecular modeling approach” (2013) come the findings set out here.

What all share (type): functional
Experiment [1] deals with MCF7. The experiment is described as follows: Growth inhibition of Homo sapiens (human) MCF7 cells after 48 hr by SRB assay. To be noted: MCF7, 48 h. For orientation: In SRB staining, fixed cells bind dye roughly in proportion to their protein.
Experiment [2] deals with Leishmania donovani. The experiment can be described thus: Antileishmanial activity against axenic amastigotes of Leishmania donovani assessed as growth inhibition at 50 uM. Particulars: read-out: GI.
The test system of experiment [3] is SF-268. The experiment can be described thus: Growth inhibition of Homo sapiens (human) SF268 cells after 48 hr by SRB assay. Particulars: SF-268, 48 h.
Experiment [4] deals with NCI-H460. The experiment can be described thus: Growth inhibition of Homo sapiens (human) NCI-H460 cells after 48 hr by SRB assay. Particulars: NCI-H460, 48 h.
The subject of experiment [5] is Leishmania donovani. The experiment can be described thus: Antileishmanial activity against axenic amastigotes of Leishmania donovani assessed as growth inhibition.
In experiment [6] the test system is Leishmania donovani. The experiment can be described thus: Antileishmanial activity against axenic amastigotes of Leishmania donovani assessed as growth inhibition at 1 uM. Particulars: read-out: GI.

Consider `Cc1nc2ccccc2c(=O)n1NC(=O)CCl`, for which the figures for the GI50 in experiment [1], in experiment [3] and in experiment [4] were 50.1 µM, 18.4 µM and 23.2 µM, respectively. Further, in experiment [2], the inhibition of growth at 50 µM was determined as 60%.
As for `Cc1nc2ccccc2c(=O)n1NC(=S)Nc1ccccc1`, the GI50 in experiment [1] came out at 64.9 µM; in experiment [3] it was 56.8 µM; in experiment [5] it was 12 µM; in experiment [4] it was 78.6 µM. In experiment [2], the inhibition of growth at 50 µM was determined as 98%.
As for `Cc1nc2ccccc2c(=O)n1-n1c(C)cc(=O)n(-c2ccccc2)c1=S`, the GI50 in experiment [1] was found to be 22.9 µM; in experiment [3] it was 36.8 µM; in experiment [5], 12 µM; in experiment [4], 43.6 µM. Also, in experiment [2], the inhibition of growth at 50 µM turned out to be 66%.
For `Cc1nc2ccccc2c(=O)n1NC(=O)/C(Cl)=C/c1ccccc1`, in that order: 0.03 µM, 0.05 µM, 26 µM, 0.02 µM and 80%.
The like results for `COc1ccc(/C=C(\Cl)C(=O)Nn2c(C)nc3ccccc3c2=O)cc1` were, in that order, 0.9 µM, 0.8 µM, 28 µM, 0.6 µM and 84%.
On to `Cc1nc2ccccc2c(=O)n1NC(=O)/C(Cl)=C/c1ccc(Cl)cc1`, for which the GI50 in experiment [1] is 70.6 µM; in experiment [3], 50.8 µM; in experiment [5] it was 18 µM; in experiment [4], 38.9 µM. The inhibition of growth at 50 µM in experiment [2] was 50%.
For `Cc1nc2ccccc2c(=O)n1NC1=CSC(=C(C#N)C#N)N1c1ccccc1`, in that order: 40.6 µM, 60.4 µM, 18 µM, 32.6 µM and 44%.
For `Cc1nc2ccccc2c(=O)n1NC(=O)C1Nc2ccccc2C1=O` (centres undefined), in that order: 11.9 µM, 20.3 µM, 13 µM, 14.1 µM and 92%.
`CC1=CC(C)N(c2ccccc2)C(=S)N1n1c(C)nc2ccccc2c1=O` (centres undefined): the GI50 in experiment [1] was 0.7 µM; in experiment [3] it was 0.03 µM; in experiment [4], 0.2 µM. In addition, the inhibition of growth at 50 µM in experiment [2] came to 48%.
As to `Cc1nc2ccccc2c(=O)n1/N=C1\SCC(=O)N1c1ccccc1`, the GI50 in experiment [1] was 22 µM; in experiment [3], 38.4 µM; in experiment [5] it was 12 µM; in experiment [4] it was 30.6 µM. In experiment [2], the inhibition of growth at 50 µM is 44%.
For `Cc1nc2ccccc2c(=O)n1/N=c1\scc(N)n1-c1ccccc1`, in that order: 36 µM, 22.5 µM, 10 µM, 28 µM and 96%.
As for `CCOC(=O)CNn1c(C)nc2ccccc2c1=O`, the GI50 in experiment [1] was found to be 20.9 µM; in experiment [3], 26.8 µM; in experiment [5] it was 10 µM; in experiment [4], 22.6 µM. Moreover, in experiment [2], the inhibition of growth at 50 µM was 44%.
On to `Cc1nc2ccccc2c(=O)n1NCC(=O)NN`, for which the GI50 in experiment [1] worked out at 11.8 µM; in experiment [3] it was 16.7 µM; in experiment [5], 22 µM; in experiment [4] it was 14.5 µM. In experiment [2], the inhibition of growth at 50 µM was 58%.
For `Cc1nc2ccccc2c(=O)n1NCC(=O)NNc1ccccc1`, in that order: 22.6 µM, 24.8 µM, 28 µM, 12.9 µM and 22%.
As for `Cc1nc2ccccc2c(=O)n1Nc1cc2ccccc2oc1=O`, the 50% growth inhibitory concentration (GI50) in experiment [1] came out at 32 µM; in experiment [3], 22.3 µM; in experiment [4] it was 17.3 µM. In addition, in experiment [2], the inhibition of growth at 50 µM came to 70%.
`Cc1nc2ccccc2c(=O)n1NCc1nc2ccccc2[nH]1`: the GI50 in experiment [1] came out at 20 µM; in experiment [3], 31.5 µM; in experiment [4] it was 22 µM. Further, the inhibition of growth at 50 µM in experiment [2] stood at 85%.
`CCOC(=O)c1c(N)cc(N)n1-n1c(C)nc2ccccc2c1=O`: the concentration for 50% growth inhibition (GI50) stood at 0.4 µM in experiment [1], 0.9 µM in experiment [3] and 0.1 µM in experiment [4]. In experiment [2], the inhibition of growth at 50 µM was 40%.
Regarding `CCOC(=O)c1c(N)cc(O)n1-n1c(C)nc2ccccc2c1=O`, the GI50 in experiment [1] worked out at 13.1 µM; in experiment [3] it was 11.5 µM; in experiment [5], 18 µM; in experiment [4], 0.9 µM. The inhibition of growth at 50 µM in experiment [2] came to 60%.
`Cc1nc2ccccc2c(=O)n1Nc1csc(N)n1`: the GI50 in experiment [1] is 0.01 µM; in experiment [3], 0.4 µM; in experiment [5], 22 µM; in experiment [4], 0.2 µM. The inhibition of growth at 50 µM in experiment [2] turned out to be 72%.
For `Cc1nc2ccccc2c(=O)n1NC(=O)c1cc2ccccc2o1`, the GI50 was found to be 10.9 µM in experiment [1], 22.3 µM in experiment [3], 14 µM in experiment [5] and 12.1 µM in experiment [4]. Also, the inhibition of growth at 50 µM in experiment [2] worked out at 28%.
With `C[C@@H]1[C@H](O)[C@@H](C)/C=C/C=C/C=C/C=C/C=C/C=C/C=C/[C@H](O[C@@H]2O[C@H](C)[C@@H](O)[C@H](N)[C@@H]2O)C[C@@H]2O[C@](O)(C[C@@H](O)C[C@@H](O)[C@H](O)CC[C@@H](O)C[C@@H](O)CC(=O)O[C@H]1C)C[C@H](O)[C@H]2C(=O)O` [AMPHOTERICIN B], the inhibition of growth at 1 µM in experiment [6] worked out at 98%.
For `COc1cccc2c1C(=O)c1c(O)c3c(c(O)c1C2=O)C[C@@](O)(C(=O)CO)C[C@@H]3O[C@H]1C[C@H](N)[C@H](O)[C@H](C)O1` [DOXORUBICIN], the GI50 in experiment [1] came out at 0.04 µM; in experiment [3] it was 0.09 µM; in experiment [4], 0.09 µM.

In general, GI50 refers to the concentration at which growth is held to half of that of the control.
